Experimental data from patent publication US20160355483A1, “COMPOUND BINDING TO PPARG BUT NOT ACTING AS PROMOTER AND PHARMACEUTICAL COMPOSITION FOR TREATING PPARG-RELATED DISEASES CONTAINING SAME AS ACTIVE INGREDIENT” (Hyundai Pharm Co., Ltd., priority 2014, published 2016).
“Also recorded” adds a separate entry of the source.

What was measured:
[1] = molecular target: T1, CYP 2C19 (Homo sapiens, UniProt P33261); assay: CYP (cytochrome P450)-suppressing effect, BD GENTEST kit; format: in vitro ADME
T1 construct: purchased BD GENTEST 459400
Method: (§1) To evaluate the CYP (cytochrome P450)-suppressing activity of the compounds prepared in the examples of the invention, the following experiment was performed.
(§2) The analysis of CYP1A2, 2C19, and 3A4 suppressing activity was performed by using a BD GENTEST (459100, 459400, and 459500) kit, and the analysis of CYP 2C9- and 2D6-suppressing activity was performed by using an Invitrogen (P2861 and P2862) kit.
(§3) When the BD GENTEST kit was used, the compounds of the present invention were diluted in acetonitrile at the final concentration of 50×. The NADPH-Cofactor mix was prepared by diluting the Cofactor, G6PDH, and control protein provided by the kit in DW according to the instructed concentration. 4 μL of the compound of the example (50×) was mixed with 96 μL of NADPH-Cofactor mix in a 96-well plate, followed by pre-incubation in a 37° C. incubator for 10 minutes.
(§4) The enzyme/substrate mixture was diluted in the buffer (0.5 M potassium phosphate, pH 7.4) provided by the kit according to the instructed concentration. Each CYP450 enzyme substrate was diluted in DW at a desired concentration respectively according to the corresponding types of CYP450. 100 μL of the enzyme/substrate mixture was loaded in the plate when the pre-incubation had been completed, followed by reaction in a 37° C. incubator for 15 minutes (1A2) and 30 minutes (3A4 and 2C19). Upon completion of the reaction, the mixture was transferred to a white plate, and the fluorescent wavelength was measured with a microplate reader (1A2, 2C19 excitation 410 nm, emission 460 nm; 3A4, excitation 409 nm, emission 530 nm).
(§5) The test results were calculated by the following formula:
(§6) (1−(fluorescence value of the test material/fluorescence value of the vehicle))×100%.

[2] = molecular target: T2, CYP 3A4 (Homo sapiens, UniProt P08684); assay: as above; format: in vitro ADME
T2 construct: purchased BD GENTEST 459500
Method: as §1, §2, §3, §4, §5, §6

[3] = molecular target: T3, CYP1A2 (Homo sapiens, UniProt P05177); assay: as above; format: in vitro ADME
T3 construct: purchased BD GENTEST 459100
T3 sequence (P05177 1-516): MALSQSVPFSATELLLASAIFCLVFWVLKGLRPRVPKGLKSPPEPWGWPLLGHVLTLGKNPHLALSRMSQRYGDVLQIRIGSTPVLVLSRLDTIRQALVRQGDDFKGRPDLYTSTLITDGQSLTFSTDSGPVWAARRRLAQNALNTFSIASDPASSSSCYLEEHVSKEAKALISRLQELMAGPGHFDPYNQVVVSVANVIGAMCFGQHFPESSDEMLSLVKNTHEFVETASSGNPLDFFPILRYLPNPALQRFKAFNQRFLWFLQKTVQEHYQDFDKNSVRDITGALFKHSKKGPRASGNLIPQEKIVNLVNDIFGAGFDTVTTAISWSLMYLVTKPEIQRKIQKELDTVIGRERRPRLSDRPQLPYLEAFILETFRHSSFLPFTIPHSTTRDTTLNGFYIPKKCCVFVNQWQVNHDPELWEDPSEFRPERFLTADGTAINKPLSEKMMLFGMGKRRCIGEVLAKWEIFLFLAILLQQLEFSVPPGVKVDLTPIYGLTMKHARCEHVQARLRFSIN
Method: as §1, §2, §3, §4, §5, §6

[4] = molecular target: T4, PPARG (peroxisome proliferator activated receptor-gamma), GST-PPARG-LBD (Homo sapiens, UniProt P37231); assay: LanthaScreen TR-FRET PPARG Competitive Binding Assay; design: key: “+” indicates the degree of the binding activity, and as the number of “+” increases, the binding activity is stronger; ++: “+” indicates the degree of the binding activity, and as the number of “+” increases, the binding activity is stronger; +++: “+” indicates the degree of the binding activity, and as the number of “+” increases, the binding activity is stronger; ++++: “+” indicates the degree of the binding activity, and as the number of “+” increases, the binding activity is stronger; settings: degree of binding activity
T4 construct: 15 μL of 5 nM GST-PPARG-LBD and 5 nM Tb-GST-antibody were added; purchased Invitrogen PV4894
T4 sequence (P37231 238-503 limits assumed): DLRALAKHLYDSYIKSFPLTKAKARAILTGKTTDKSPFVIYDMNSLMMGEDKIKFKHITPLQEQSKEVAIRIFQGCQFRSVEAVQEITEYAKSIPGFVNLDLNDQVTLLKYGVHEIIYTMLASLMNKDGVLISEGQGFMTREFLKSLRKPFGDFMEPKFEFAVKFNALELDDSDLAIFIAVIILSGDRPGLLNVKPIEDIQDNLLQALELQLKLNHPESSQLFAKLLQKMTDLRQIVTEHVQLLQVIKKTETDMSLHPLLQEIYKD
Outline: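 Ratio of 518 nm to 488 nm time-resolved emission after a 1 h room-temperature incubation, in competition format with GST-PPARG ligand-binding domain. Values are expressed as 100% minus compound-to-vehicle ratio and related to rosiglitazone binding.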

[5] = molecular target: T5, CYP 2C9 (Homo sapiens, UniProt P11712); assay: CYP (cytochrome P450)-suppressing effect, Invitrogen Vivid kit; format: in vitro ADME
T5 construct: purchased Invitrogen P2861
Method: as §1, §2
(§7) When the Invitrogen kit was used, the compounds of the present invention were diluted in Vivid CYP450 reaction buffer (1×) at the final concentration of 2.5×. The P450 BACULOSOMES sample and Regeneration system (100×) were diluted in Vivid CYP450 reaction buffer (1×) at different proper concentrations. 80 μL of the compound of the invention (2.5×) and […] of the diluted P450 BACULOSOMES sample mixture were mixed in a U-bottom 96-well plate, followed by pre-incubation for 10 minutes. Vivid CYP450 Substrate and NADP+ (100×) were diluted in Vivid CYP450 reaction buffer (1×) at a desired concentration, respectively, according to their corresponding types of CYP450 and substrates. 20 μL of Substrate-NADP+ mix was loaded in the plate when the pre-incubation had been completed, followed by reaction for 1 hour. Upon completion of the reaction, the reaction mixture was transferred in a white plate and fluorescent wavelength was measured with a microplate reader (2C9 excitation 415 nm, emission 460 nm, 2D6 excitation 400 nm, emission 502 nm).
as §5, §6

[6] = molecular target: T6, CYP 2D6 (Homo sapiens, UniProt P10635); assay: as above; format: in vitro ADME
T6 construct: purchased Invitrogen P2862
Method: as §1, §2, §7, §5, §6

[7] = tested on: CYP isozymes 1A2, 2C9, 2C19, and 2D6; assay: CYP suppression compared with comparative examples (Table 3); format: in vitro ADME; settings: result in words
Method: as §1, §2, §7, §3, §4, §5, §6

T5 sequence (P11712 whole entry): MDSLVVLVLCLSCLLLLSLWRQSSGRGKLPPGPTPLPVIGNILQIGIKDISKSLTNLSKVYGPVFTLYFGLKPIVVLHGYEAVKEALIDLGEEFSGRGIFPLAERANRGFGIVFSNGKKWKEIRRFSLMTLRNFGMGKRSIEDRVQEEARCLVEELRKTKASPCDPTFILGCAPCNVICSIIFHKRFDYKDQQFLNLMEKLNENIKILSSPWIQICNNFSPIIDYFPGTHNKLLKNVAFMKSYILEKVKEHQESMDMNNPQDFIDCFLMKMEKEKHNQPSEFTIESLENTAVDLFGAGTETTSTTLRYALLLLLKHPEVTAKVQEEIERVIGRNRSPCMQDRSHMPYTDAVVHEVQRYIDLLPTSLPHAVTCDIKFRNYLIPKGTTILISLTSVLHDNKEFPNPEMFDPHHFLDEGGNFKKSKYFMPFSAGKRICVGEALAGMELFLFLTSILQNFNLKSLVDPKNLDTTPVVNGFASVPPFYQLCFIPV
T1 sequence (P33261 whole entry): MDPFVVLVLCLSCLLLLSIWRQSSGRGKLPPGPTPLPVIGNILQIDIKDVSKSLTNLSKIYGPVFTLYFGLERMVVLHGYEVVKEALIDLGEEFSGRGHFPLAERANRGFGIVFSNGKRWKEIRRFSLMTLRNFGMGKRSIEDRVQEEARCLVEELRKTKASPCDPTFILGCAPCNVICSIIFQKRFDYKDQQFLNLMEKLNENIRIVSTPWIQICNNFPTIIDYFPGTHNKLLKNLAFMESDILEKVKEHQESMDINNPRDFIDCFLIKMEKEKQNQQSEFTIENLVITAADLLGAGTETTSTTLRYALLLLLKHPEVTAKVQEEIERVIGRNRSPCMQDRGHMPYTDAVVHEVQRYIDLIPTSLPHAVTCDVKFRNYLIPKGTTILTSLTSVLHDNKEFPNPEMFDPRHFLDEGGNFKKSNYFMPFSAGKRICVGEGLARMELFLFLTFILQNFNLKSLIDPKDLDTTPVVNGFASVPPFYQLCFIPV
T6 sequence (P10635 whole entry): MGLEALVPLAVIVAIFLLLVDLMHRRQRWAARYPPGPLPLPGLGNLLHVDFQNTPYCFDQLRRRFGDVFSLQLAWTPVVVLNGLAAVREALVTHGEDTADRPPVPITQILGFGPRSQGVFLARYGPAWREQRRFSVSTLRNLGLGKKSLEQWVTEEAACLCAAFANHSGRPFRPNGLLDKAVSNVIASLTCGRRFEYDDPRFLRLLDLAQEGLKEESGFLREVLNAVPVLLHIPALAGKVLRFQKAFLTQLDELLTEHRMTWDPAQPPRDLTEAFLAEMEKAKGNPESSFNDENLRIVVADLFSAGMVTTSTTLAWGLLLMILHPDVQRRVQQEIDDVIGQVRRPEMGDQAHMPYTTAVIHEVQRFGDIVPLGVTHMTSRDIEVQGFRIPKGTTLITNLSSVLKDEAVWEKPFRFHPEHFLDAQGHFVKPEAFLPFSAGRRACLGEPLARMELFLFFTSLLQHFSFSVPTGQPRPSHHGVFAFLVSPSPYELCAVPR
T2 sequence (P08684 whole entry): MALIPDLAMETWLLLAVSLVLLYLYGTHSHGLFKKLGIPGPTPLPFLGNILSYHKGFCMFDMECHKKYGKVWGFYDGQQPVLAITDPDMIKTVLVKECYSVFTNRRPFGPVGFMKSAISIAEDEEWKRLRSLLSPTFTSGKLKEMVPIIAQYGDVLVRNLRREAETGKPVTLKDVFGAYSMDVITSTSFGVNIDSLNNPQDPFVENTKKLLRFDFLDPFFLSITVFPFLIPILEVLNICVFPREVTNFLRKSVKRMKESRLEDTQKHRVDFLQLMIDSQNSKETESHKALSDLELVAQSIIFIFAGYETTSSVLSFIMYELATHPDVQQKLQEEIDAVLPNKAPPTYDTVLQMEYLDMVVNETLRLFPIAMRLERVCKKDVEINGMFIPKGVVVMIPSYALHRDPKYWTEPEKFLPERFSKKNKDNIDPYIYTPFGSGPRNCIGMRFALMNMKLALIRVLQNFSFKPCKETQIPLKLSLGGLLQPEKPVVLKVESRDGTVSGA

SMILES	CYP(10 μL, %) 2C19 [1] [%]	CYP(10 μL, %) 3A4 [2] [%]	CYP(10 μL, %) 1A2 [3] [%]	Binding assay (1 μLM) [4]	CYP(10 μL, %) 2C9 [5] [%]	CYP(10 μL, %) 2D6 [6] [%]	suppression of CYP isozymes 1A2, 2C9, 2C19, and 2D6 compared with SR1664 and SR1824 [7]
C[C@H](NC(=O)c1ccc2c(c1)OCCN2Cc1ccc(-c2ccccc2C(=O)O)cc1)c1ccc(C#N)cc1 [Example 74, (S)-4′-((7-((1-(4-cyanophenyl)ethyl)carbamoyl)-2H-benzo[b][1,4]oxazine-4(3H)-yl)methyl)-[1,1′-biphenyl]-2-carboxylic acid]	91.36	81.98	102.89	+	80.68	83.97	less than the compounds of the comparative examples; also recorded: less strongly than the compounds of the Comparative Examples
C[C@H](NC(=O)c1ccc2c(c1)OCCN2Cc1ccc(-c2ccccc2C(N)=O)cc1)c1ccc2ccccc2c1 [Example 96, (S)-4-((2′-carbamoyl-[1,1′-biphenyl]-4-yl)methyl)-N-(1-(naphthalene-2-yl)ethyl)-3,4-dihydro-2H-benzo[b][1,4]oxazine-7-carboxamide]	52.35	98.04	92.41	+++	57.63	98.66	less than the compounds of the comparative examples; also recorded: less strongly than the compounds of the Comparative Examples
C[C@H](NC(=O)c1ccc2c(c1)CCCN2Cc1ccc(-c2ccccc2C(=O)O)cc1F)c1ccc(C#N)cc1 [Example 110, (S)-4′-((6-((1-(4-cyanophenyl)ethyl)carbamoyl)-3,4-dihydroquinoline-1(2H)-yl)methyl)-3′-fluoro-[1,1′-biphenyl]-2-carboxylic acid]	69.53	53.03	97.28	+++	55.18	88.44	less than the compounds of the comparative examples; also recorded: less strongly than the compounds of the Comparative Examples
C[C@H](NC(=O)c1ccc2c(c1)CCCN2Cc1ccc(-c2ccccc2C(N)=O)cc1F)c1ccc([N+](=O)[O-])cc1 [Example 113, (S)-1-((2′-carbamoyl-3-fluoro-[1,1′-biphenyl]-4-yl)methyl)-N-(1-(4-nitrophenyl)ethyl)-1,2,3,4-tetrahydroquinoline-6-carboxamide]	54.70	85.01	97.27	++	67.73	78.65	less than the compounds of the comparative examples; also recorded: less strongly than the compounds of the Comparative Examples
C[C@H](NC(=O)c1ccc2c(c1)CCCN2Cc1ccc(-c2ccccc2C(N)=O)cc1F)c1ccc2ccccc2c1 [Example 115, (S)-1-((2′-carbamoyl-3-fluoro-[1,1′-biphenyl]-4-yl)methyl)-N-(1-(naphthalene-2-yl)ethyl)-1,2,3,4-tetrahydroquinoline-6-carboxamide]	59.33	77.73	97.62	+++	63.87	95.56	less than the compounds of the comparative examples; also recorded: less strongly than the compounds of the Comparative Examples
C[C@H](NC(=O)c1ccc2c(c1)CCCN2Cc1cccc(-c2ccccc2C(=O)O)c1)c1ccc(C#N)cc1 [Example 118, (S)-3′-((6-((1-(4-cyanophenyl)ethyl)carbamoyl)-3,4-dihydroquinoline-1(2H)-yl)methyl)-[1,1′-biphenyl]-2-carboxylic acid]	74.03	71.21	101.50	+	52.02	94.83	less than the compounds of the comparative examples; also recorded: less strongly than the compounds of the Comparative Examples
C[C@H](NC(=O)c1ccc2c(c1)CCCN2Cc1cccc(-c2ccccc2C(N)=O)c1)c1ccc([N+](=O)[O-])cc1 [Example 123, (S)-1-((2′-carbamoyl-[1,1′-biphenyl]-3-yl)methyl)-N-(1-(4-nitrophenyl)ethyl)-1,2,3,4-tetrahydroquinoline-6-carboxamide]	58.85	52.65	102.45	+++	59.36	82.48	less than the compounds of the comparative examples; also recorded: less strongly than the compounds of the Comparative Examples
C[C@H](NC(=O)c1ccc2c(c1)CCCN2Cc1cccc(-c2ccccc2C(N)=O)c1F)c1ccc([N+](=O)[O-])cc1 [Example 131, (S)-1-((2′-carbamoyl-2-fluoro-[1,1′-biphenyl]-3-yl)methyl)-N-(1-(4-nitrophenyl)ethyl)-1,2,3,4-tetrahydroquinoline-6-carboxamide]	54.84	55.88	94.17	+++	52.84	86.92	less than the compounds of the comparative examples; also recorded: less strongly than the compounds of the Comparative Examples
